Assay results reported in US11891601B2, “Method to enhance the transcription regulation of SUPT4H on genes containing repetitive nucleotide sequences” (National Yang-Ming University, priority 2018, dated 2024).

Tested on: mutant HTT
Experiment: Mutant HTT protein level in HD-Drosophila by Western blotting
Assay type: in vivo, Drosophila melanogaster
Settings: 10 μM 6CR plus 100 μM Tropolone in media, fly heads
Protocol: For Drosophila samples, 15 males and 15 females HD flies were collected after each compound treatment. Their heads were isolated and homogenized with 1× sample buffer (50 mM Tris-HCl pH 7.5, 150 mM NaCl, 1% NP-40, 0.1% sodium dodecyl sulfate (SDS), 1% sodium deoxycholate, and blue dye) for protein lysate collection. Equivalent amounts of protein lysates were separated on 12% SDS-polyacrylamide gel, and then transferred to NC membranes (GE Healthcare Life Science). Detection of HTT and α-tubulin protein was performed as described above.
In each compound treatment experiment, 15 Gmr-ga14-UAS-HTT97Q/cyo male flies were crossed with 15 Gmr-ga14-UAS-HTT-97Q/cyo females in a vial containing 10 mL of media supplemented with the testing compound at a final concentration of 10 μM 6CR (Sigma) or/and 100 μM Tropolone (Sigma). […] In each treatment group, flies were analyzed and normalized with control flies. […]
Please refer to FIG. 8. […] After parent fly removal, the 4-day-old progenies carrying one Gmr-ga14-UAS-HTT97Q allele were collected and analyzed for eye morphology. […] 4-day-old progenies as described above were collected and analyzed the levels of mutant HTT by Western blotting. α-tubulin was included and served as a loading control. […]

With `O=c1cccccc1O` [Tropolone] as the compound, how does the “level of mutant HTT, 6CR with co-treatment of Tropolone” value read?
Its value is “decreased accordingly”.
